Assay results: PMC8881610 (Nature Communications, 2022)
Positions count from the first letter of the chain named.

Assays:
Assay in all cases: cAMP accumulation assay (LANCE Ultra cAMP kit), GIPR WT, mutant or modified constructs
Assay type in all cases: cell-based
Set-up in all cases: acylated tirzepatide to the full-length or modified; Flag; expressed in transfected cells; host or cells: HEK293T
[1] = target: T1, GIPR (Homo sapiens, UniProt P48546, D191A/Q138A/R196A); conditions: GIPR Q138A/D191A/R196A, HEK293T
T1 sequence (P48546 22-466 Q138A/D191A/R196A): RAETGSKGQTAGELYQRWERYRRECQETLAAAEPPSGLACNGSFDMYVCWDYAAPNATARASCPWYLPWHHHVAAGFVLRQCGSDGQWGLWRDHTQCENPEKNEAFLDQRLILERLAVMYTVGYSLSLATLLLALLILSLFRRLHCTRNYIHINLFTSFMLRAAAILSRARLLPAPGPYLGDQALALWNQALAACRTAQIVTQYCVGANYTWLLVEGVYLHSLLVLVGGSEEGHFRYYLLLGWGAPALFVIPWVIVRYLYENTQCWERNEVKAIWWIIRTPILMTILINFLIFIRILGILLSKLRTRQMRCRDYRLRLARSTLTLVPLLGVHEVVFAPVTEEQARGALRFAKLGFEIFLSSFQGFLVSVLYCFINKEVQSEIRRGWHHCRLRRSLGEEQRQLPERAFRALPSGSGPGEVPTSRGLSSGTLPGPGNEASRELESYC
How it was run: (§1)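 HEK293T cells transiently transfected with human GIPR WT or mutant constructs (pcDNA3.1), used after 24 h. The cells were stimulated with peptide agonists for 40 min at RT in HBSS with 5 mM HEPES, 0.1% BSA or casein, and 0.5 mM IBMX. cAMP was read by LANCE Ultra TR-FRET (Eu-cAMP tracer/ULight anti-cAMP, 1 h RT, 620/650 nm).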

[2] = target: T2, GIPR (Homo sapiens, UniProt P48546, R192A); conditions: GIPR R192A, HEK293T
T2 sequence (P48546 22-466 R192A): T1 sequence (P48546 22-466 Q138A/D191A/R196A) with A117Q, A170D, R171A, A175R
How it was run: as §1

[3] = target: T3, GIPR (Homo sapiens, UniProt P48546, Q285A); conditions: GIPR Q285A, HEK293T
T3 sequence (P48546 22-466 Q285A): T1 sequence (P48546 22-466 Q138A/D191A/R196A) with A117Q, A170D, A175R, Q264A
How it was run: as §1

[4] = read-out: cAMP pEC50 (converted)

## CCCCCCCCCCCCCCCC(=O)N[C@@H](CCC(=O)NCCCC[C@H](NC(=O)[C@H](CC(=O)O)NC(=O)[C@H](CO)NC(=O)[C@@H](NC(=O)[C@H](Cc1ccccc1)NC(=O)[C@@H](NC(=O)CNC(=O)[C@H](CCC(N)=O)NC(=O)C(C)(C)NC(=O)[C@@H](N)Cc1c[nH]cn1)[C@@H](C)O)[C@@H](C)O)C(=O)N[C@@H](CO)C(=O)N[C@@H](CCCCN)C(=O)N[C@@H](Cc1ccc(O)cc1)C(=O)N[C@@H](CC(C)C)C(=O)N[C@@H](CC(=O)O)C(=O)N[C@@H](CCC(=O)O)C(=O)N[C@@H](CCCNC(=N)N)C(=O)N[C@@H](C)C(=O)N[C@@H](C)C(=O)N[C@@H](CCC(N)=O)C(=O)N[C@@H](CC(=O)O)C(=O)N[C@@H](Cc1ccccc1)C(=O)N[C@H](C(=O)N[C@@H](CCC(N)=O)C(=O)N[C@@H](Cc1c[nH]c2ccccc12)C(=O)N[C@@H](CC(C)C)C(=O)N[C@@H](CC(C)C)C(=O)N[C@@H](CC(=O)O)C(=O)NCC(=O)NCC(=O)N1CCC[C@H]1C(=O)N[C@@H](CO)C(=O)N[C@@H](CO)C(=O)NCC(=O)N[C@@H](C)C(=O)N1CCC[C@H]1C(=O)N1CCC[C@H]1C(=O)N1CCC[C@H]1C(=O)N[C@@H](CO)C(N)=O)C(C)C)C(=O)O [Peptide 20]
[1]; [4]
  EC50: 30.2 nM
[1]; HEK-293T
  Emax: 56.3 ± 12.2%
[2]; [4]
  EC50: 0.0302 nM
[2]; HEK-293T
  Emax: 101 ± 1.91%
[3]; [4]
  EC50: 0.0417 nM
[3]; HEK-293T
  Emax: 97.6 ± 1.37%
